Test results from paper PMC10835127, “Viruses traverse the human proteome through peptide interfaces that can be biomimetically leveraged for drug discovery” (Proceedings of the National Academy of Sciences of the …, 2024).
In brackets after ≈: the same amount, converted by molar mass. Where two headings read alike, the source gives them in different places.

How the values were obtained:
[1] = test system: diet-induced obese model of NASH; assay: NASH mouse model (AMLN diet-induced obese); type: in vivo, C57BL/6JRj mice; settings: oral, 8 wk; dEF3122 twice daily 7 or 20 mg/kg, OCA once daily 7 mg/kg; vs vehicle
Protocol: Fig. 6. Effect of the lead compound in a diet-induced obese model of NASH. Mice fed with a high fat, high fructose, and cholesterol supplemented diet for 38 wk were then treated in the last 8 wk with vehicle, dEF3122, or OCA (obeticholic acid) at indicated concentrations (n = 12 animals per group). (A and B) Histopathological mean score changes between the beginning and end of the treatment for liver portal inflammation (A) and liver portal fibrosis (B) are shown with representative stained liver sections of hematoxylin and eosin (H&E) and picrosirius red stains, respectively. (C–E) (C) Areas of kidney fibrosis at the end of the treatment are shown as % of the total area of the selected fields with representative sections of the kidney stained with picrosirius red. (D) % CD3 and (E) % F4/80 positive areas in kidneys with representative sections of CD3 and F4/80 immunostainings. *P < 0.05, **P < 0.01, and ***P < 0.001 from the T test with a preliminary nonsignificant Shapiro–Wilk test or from Wilcoxon signed–rank test otherwise.
Five-week-old male C57BL/6JRj mice were fed either chow diet or AMLN diet (40% total fat kcal of which 18.5% were trans-fat kcal, 20% fructose, and 2% cholesterol). This diet was maintained for 30 wk prior to study initiation. Three weeks prior to study initiation, liver biopsies were taken, and animals with steatosis grade <2 and fibrosis stage <1 were excluded from the study. Prior to the first administration of the test compound, stratified randomization of mice into treatment groups was performed according to collagen 1a1 (IHC) morphometry from the week 3 biopsies. Each treatment group consisted of 12 mice. For a total of 8 wk, compound dEF3122 was administered orally, twice daily at a concentration of 7 mg/kg or 20 mg/kg. OCA was administered orally, once daily at a concentration of 7 mg/kg. Animals were killed at the end of the treatment, and livers and kidneys were collected. […]
NASH histopathology and immunochemistry
Livers were fixed in 10 % neutral buffered formalin and paraffin-embedded; and sections were stained with H&E and picrosirius red to analyze their morphology. Histopathological analysis was performed by a pathologist blinded to the study. Fibrosis was evaluated by quantification of the picrosirius red positive areas. Inflammation was graded by counting the H&E positive inflammatory foci per field.
Kidneys were fixed in 4 % PFA and paraffin embedded. 4-μm sections were stained with picrosirius red. Images were acquired using a digital slide scanner (Nanozoomer S210 Digital Slide Scanner, Hamamatsu). Renal lesions were blindly examined by a renal pathologist. The extent of interstitial fibrosis was quantified using Image J software (NIH) on Sirius red scanned colored sections. In short, at least 20 random selected fields (original magnification, ×200) across the kidney cortex were analyzed per each kidney section, and the results were expressed as percentages of the total area of the selected fields.
For immunohistochemistry, 4-µm sections of paraffin-embedded kidneys were submitted for appropriate antigen retrieval by high pressure heating in a solution of Tris EDTA Tween or in a citrate solution. Then, sections were then incubated overnight at 4°C with the following antibodies: rabbit monoclonal anti-CD3 (Abcam, 1:100) and rat monoclonal anti- F4/80 (Biorad, 1:100). After washing, sections were incubated with appropriate amplification secondary antibody: biotin-coupled anti-rabbit (GE Healthcare) for CD3 and biotin-coupled anti-rat (Vector Laboratories) for F4/80, and then incubated with streptavidin coupled HRP (Southern). At the end, DAB (DAKO) staining was used to detect HRP. For quantification of CD3+ and F4/80+ renal cells, the degrees of cellular infiltrate were automatically quantified using ImageJ software (NIH) and expressed as a percentage of the surface area of the positive staining per field, in at least 10 random fields perp

[2] = Kinetic solubility; type: physicochemical; settings: PBS pH 7.4 buffer, pH 7.4, aqueous buffer, kinetic from dmso stock
Protocol: 10 mM DMSO Stock solutions of tested compounds were distributed into filtration plate (Multiscreen Durapore 0.45µm) containing PBS pH 7.4 buffer to a final maximum concentration of 130 μM (1.3 % DMSO/buffer). Solutions or suspensions were shaken for 30 min at room temperature. The samples were filtered under vacuum into a collection plate and diluted 50 % with ACN for UV analysis. Quantification was performed against a Reference plate containing the same tested compounds fully solubilized in ACN/PBS buffer 1:1. Reference and Sample plates were analyzed by UPLC/UV-MS using a generic UPLC method. […]

[3] = test system: influenza A H1N1 virus; assay: microbe, parasite or virus in culture; settings: H1N1, A549, read-out: IC50 for the inhibition of influenza virus replication
[4] = test system: HCV replicon; type: cell-based; settings: normalized mean of HCV replicon readout
[5] = test system: EBV; settings: normalized mean of EBV replication readout
[6] = test system: influenza A H1N1 virus; settings: 48 hr post-treatment, A549
[7] = test system: HIV1 strain NL4-3; type: cell-based; settings: normalized mean of HIV1 replication readout
[8] = test system: F. novicida (strain U112); type: cell-based

Row | Molecule | liver portal fibrosis [1] | liver portal inflammation [1] | solubility kinetic at 30 min [2] | IC50 [3] | HCV Norm MEAN ([4]; peptide screen) | EBV Norm MEAN ([5]; peptide screen) | Neuraminidase activity normalized to vehicle ([6]; 200 µM peptide) | Neuraminidase activity normalized to vehicle ([6]; 0,823 µM peptide) | Neuraminidase activity normalized to vehicle ([6]; 22,2 µM peptide) | Neuraminidase activity normalized to vehicle ([6]; 2,4691 µM peptide) | Neuraminidase activity normalized to vehicle ([6]; 7,4074 µM peptide) | Neuraminidase activity normalized to vehicle ([6]; 66,6667 µM peptide) | HIV1 Norm MEAN ([7]; peptide screen) | Francisella novicida Norm AUC [8] | HCV Norm MEAN [4] | EBV Norm MEAN [5] | HIV1 Norm MEAN [7]
1 | CC[C@H]1[C@@H](O)[C@@H]2[C@H](CC[C@]3(C)[C@@H]([C@H](C)CCC(=O)O)CC[C@@H]23)[C@@]2(C)CC[C@@H](O)C[C@@H]12 [OCA, obeticholic acid, reference compound] | significantly reduced portal fibrosis | failed to alleviate portal inflammation |  |  |  |  |  |  |  |  |  |  |  |  |  |  | 
2 | CCOC(=O)c1c(NC(=O)C2CCCCC2C(=O)O)sc2c1CCC(C(C)(C)C)C2 (stereo not shown) [dEF2586] |  |  | 173 µM (≈ 75.4 µg/mL) | 3 µM |  |  |  |  |  |  |  |  |  |  |  |  | 
3 | ACTNCYCKKCCFHCQVC [CPEP100] |  |  |  |  | 0.4928 | 1.687 | 1,0893 | 1,092 | 1,1329 | 0,9938 | 1,0674 | 1,0274 | 0.1546 | 1.04 |  |  | 
4 | CPEP52: peptide of the viral peptide library; sequence page not shown (CFITKALGISYG) |  |  |  |  |  |  | 0,1673 | 0,9576 | 1,0146 | 1,1215 | 0,9392 | 0,5319 |  | 2.021 | 0.3655 | 2.225 | 5.563
5 | DDLYEEV [CPEP111] |  |  |  |  |  |  | 0,7987 | 0,9384 | 0,8898 | 0,8026 | 0,8887 | 0,8909 |  | 0.6875 | 0.2545 | 0.5736 | 0.957
6 | EDPNEE [CPEP68] |  |  |  |  |  |  | 0,7574 | 0,7462 | 0,8576 | 0,7296 | 0,7652 | 0,95 |  | 0.6174 | 0.2553 | 0.4757 | 1.205
7 | EDLLNEPGQPLDLSC [CPEP104] |  |  |  |  | 1.128 | 0.504 | 0,8372 | 0,8247 | 0,8954 | 0,9133 | 0,8771 | 0,8952 | 0.2933 | 1.073 |  |  | 
8 | GGKWSKLS [CPEP134] |  |  |  |  |  |  | 0,426 | 0,9416 | 0,8116 | 0,8887 | 0,9196 | 0,7036 |  | 1.142 | 0.2388 | 0.3842 | 1.139
9 | CPEP126: peptide of the viral peptide library; sequence page not shown (TQNLYPDLSEIKK) |  |  |  |  | 0.4853 | 0.8026 | 0,8408 | 0,9498 | 0,8904 | 0,9431 | 0,8627 | 0,9364 | 0.6553 | 1.192 |  |  | 
10 | LTEDRWNKPQKTKGH [CPEP141] |  |  |  |  | 0.7797 | 0.7716 | 0,9005 | 0,8505 | 0,9378 | 0,92 | 0,9289 | 0,9241 | 0.4657 | 1.234 |  |  | 
11 | LERVIFPSVKIATLV [CPEP53] |  |  |  |  | 0.3466 | 1.031 | 0,9303 | 0,9211 | 1,0363 | 1,008 | 1,0347 | 1,0977 | 0.6568 | 0.5248 |  |  | 
12 | RHIICHGGVI [CPEP133] |  |  |  |  |  |  | 0,0947 | 0,951 | 0,4954 | 0,9186 | 0,811 | 0,1797 |  | 0.5145 | 0.3927 | 1.143 | 7.136
13 | GARASVLS [CPEP108] |  |  |  |  |  |  | 0,7289 | 0,7112 | 0,9027 | 0,8479 | 0,9625 | 0,8429 |  | 1.458 | 0.178 | 0.7452 | 0.3412
14 | KKTKSLP [CPEP75] |  |  |  |  |  |  | 0,6614 | 0,8942 | 0,8062 | 0,8135 | 0,8547 | 0,7577 |  | 1.06 | 0.2042 | 0.414 | 0.7985
